Data set [1] deals with Mycobacterium tuberculosis. Nature of the data set: In vitro antimicrobacterial activity to inhibit 90% of Mycobacterium tuberculosis H37Rv (Rifampin and Isoniazid susceptible ATCC 27294 strain), relative to that of controls. Format: functional.
For data set [2], the system named is Mycobacterium tuberculosis. Nature of the data set: In vitro anti-mycobacterial activity against Mycobacterium tuberculosis H37Rv (Rifampin and Isoniazid susceptible ATCC 27294 strain). Details: concentration or dose not given beside the values. In kind it is functional.
A further data set deals with Vero. Description: Compound was tested for its cytotoxicity on Vero cells. The settings on record: Chlorocebus sabaeus. Format: functional, cell-based.
The subject of the next data set is Mycobacterium avium. Nature of the data set: In vitro anti-mycobacterial activity against Mycobacterium avium at 12.5 ug/mL. In kind it is functional.
Data set [3] is described as follows: Safety index from cytotoxicity to that of minimal inhibitory concentration. Format: toxicity. The settings on record: read-out: S.I.

≈ marks a conversion by molar mass, not a printed value. Some results are limits rather than exact numbers.

Broadly, the MIC is the least concentration at which growth counts as inhibited. What is called Inhibition is the percentage by which the read-out fell short of the control. Regarding `C/C=N/NC(=O)c1ccncc1`, in data set [1], the MIC worked out at 0.025 µg/mL (≈ 0.153 µM). In data set [2], this compound returned an Inhibition of 99%.
In turn, `C/C(=N\NC(=O)c1ccncc1)c1ccc(Cl)c(Cl)c1` gave an MIC in data set [1] below 0.2 µg/mL. Besides, in data set [2], the Inhibition is listed as 100%.
As to `C/C(=N\NC(=O)c1ccncc1)c1cccc(F)c1`, in data set [1], the MIC is below 0.05 µg/mL. The compound further had an Inhibition in data set [2] of 100%.
The IC50 is the concentration that gives 50% inhibition. The compound `NNC(=O)c1ccncc1` [ISONIAZID] came in with an MIC in data set [1] of 0.05 µg/mL (≈ 0.365 µM). The compound also registered an IC50 with Vero above 1000 µg/mL.
By inhibition is commonly meant the drop in the measured response relative to a control, in per cent. Take `O=C(N/N=C/c1ccc(C(F)(F)F)cc1)c1ccncc1`: the inhibition at 12.5 µg/mL in the data set on Mycobacterium avium is 82%. This compound yielded an MIC in data set [1] below 0.2 µg/mL. Further, the Inhibition in data set [2] came out at 100%.
Take `O=C(N/N=C/c1cccc(F)c1)c1ccncc1`: testing at 12.5 µg/mL in the data set with Mycobacterium avium gave an inhibition of 82%. Besides, the MIC in data set [1] was below 0.2 µg/mL. The same compound returned an IC50 in the data set with Vero above 6.25 µg/mL. Besides, the Inhibition in data set [2] was found to be 99%. For the same compound, the selectivity ratio in data set [3] was above 31.2.
In data set [1], `O=C(N/N=C/C(F)(F)F)c1ccncc1` registered an MIC of 0.05 µg/mL (≈ 0.23 µM). Besides, the Inhibition in data set [2] stood at 100%.
`CO[C@H]1/C=C/O[C@@]2(C)Oc3c(C)c(O)c4c(O)c(c(/C=N/N5CCN(C)CC5)c(O)c4c3C2=O)NC(=O)/C(C)=C\C=C\[C@H](C)[C@H](O)[C@@H](C)[C@@H](O)[C@@H](C)[C@H](OC(C)=O)[C@@H]1C` [RIFAMPIN] had an MIC in data set [1] of 0.06 µg/mL (≈ 0.0729 µM). In the data set on Vero, half-maximal inhibition (IC50) required 147 µg/mL (≈ 179 µM).
Turning to `COc1ccc(/C=N/NC(=O)c2ccncc2)cc1F`, the MIC in data set [1] was below 0.2 µg/mL. This compound also gave an Inhibition in data set [2] of 99%.
`C/C(=N\NC(=O)c1ccncc1)C(F)(F)F` registered an MIC in data set [1] of 0.05 µg/mL (≈ 0.216 µM). The Inhibition in data set [2] is reported as 99%.
As for `C/C(=N\NC(=O)c1ccncc1)c1ccc(F)cc1`, in data set [1], the MIC is below 0.2 µg/mL. The compound further returned an IC50 with Vero above 10 µg/mL. In data set [2], this compound showed an Inhibition of 99%. The selectivity ratio in data set [3] is above 50.
In turn, `O=C(N/N=C(\c1ccccc1)C(F)(F)F)c1ccncc1` showed an MIC in data set [1] of 6.25 µg/mL (≈ 21.3 µM). Further, the Inhibition in data set [2] is 100%.
Compound `O=C(N/N=C/c1ccccc1F)c1ccncc1` displayed a minimum inhibitory concentration (MIC) in data set [1] of 0.05 µg/mL (≈ 0.206 µM). Also, the 50% inhibitory concentration (IC50) in the data set on Vero was 8.4 µg/mL (≈ 34.5 µM). Besides, the Inhibition in data set [2] was 100%. The selectivity ratio in data set [3] came to 168.
`O=C(N/N=C/c1cccc(C(F)(F)F)c1)c1ccncc1` came in with an MIC in data set [1] of 0.1 µg/mL (≈ 0.341 µM). This compound registered a half-inhibitory concentration (IC50) in the data set with Vero above 10 µg/mL. Moreover, in data set [2], the Inhibition is given as 99%. Also, the selectivity ratio in data set [3] is above 100.
`C/C(=N\NC(=O)c1ccncc1)c1ccccc1F` came in with an MIC in data set [1] of 0.2 µg/mL (≈ 0.777 µM). Besides, the IC50 in the data set with Vero was above 125 µg/mL. The compound also yielded an Inhibition in data set [2] of 100%. The selectivity ratio in data set [3] was above 625.

For the origin of these results see ChEMBL document CHEMBL1133318, “Isoniazid-related copper(II) and nickel(II) complexes with antimycobacterial in vitro activity. Part 9” (Bioorg Med Chem Lett, 2000).
